Data on 15 molecules can be found in patent US20170349593A1, “BTK INHIBITORS” (MERCK SHARP & DOHME CORP., priority 2014, published 2017).

The structures appear in SMILES notation.

For test [1], the system named is adenosine uptake into HeLa cells. Description: [3H]Adenosine uptake assay. It counts as cell-based. As to conditions: Homo sapiens; accumulation of [3H]adenosine into HeLa cells; concentration range 10 μM to 0.032 nM; read-out: ADU inhibition IC50. The method, boiled down:
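HeLa cells (25 000/well), plated overnight, were preincubated 30 minutes at ambient temperature with compound in HBSS + 5% FBS. Ten-point titrations ran from 10 μM to 0.032 nM final. [3H]adenosine was added from a 500 nM solution for 60 minutes, and uptake was measured by scintillation proximity counting; IC50 came from a 4-parameter fit.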

Test [2] concerns the target T1, BTK enzyme (recombinant full-length BTK, hBTK) (Homo sapiens, UniProt Q06187).
T1 construct: recombinant protein from baculovirus-transfected S 19 cells: full-length BTK, 6 HIS-tag cleaved; 6 HIS-tag (cleaved yes); made in house
Description: Btk enzyme activity assay (LANCE TR-FRET). As to conditions: 50 pM hBTK, 25 μM ATP, 60 minute compound and enzyme incubation, concentration range 1 μM to 0.017 nM, read-out: BTK binding IC50. The test is classed as biochemical. On the technique in general: In TR-FRET formats the signal depends on donor and acceptor labels being close together.

T1 sequence (Q06187 whole entry): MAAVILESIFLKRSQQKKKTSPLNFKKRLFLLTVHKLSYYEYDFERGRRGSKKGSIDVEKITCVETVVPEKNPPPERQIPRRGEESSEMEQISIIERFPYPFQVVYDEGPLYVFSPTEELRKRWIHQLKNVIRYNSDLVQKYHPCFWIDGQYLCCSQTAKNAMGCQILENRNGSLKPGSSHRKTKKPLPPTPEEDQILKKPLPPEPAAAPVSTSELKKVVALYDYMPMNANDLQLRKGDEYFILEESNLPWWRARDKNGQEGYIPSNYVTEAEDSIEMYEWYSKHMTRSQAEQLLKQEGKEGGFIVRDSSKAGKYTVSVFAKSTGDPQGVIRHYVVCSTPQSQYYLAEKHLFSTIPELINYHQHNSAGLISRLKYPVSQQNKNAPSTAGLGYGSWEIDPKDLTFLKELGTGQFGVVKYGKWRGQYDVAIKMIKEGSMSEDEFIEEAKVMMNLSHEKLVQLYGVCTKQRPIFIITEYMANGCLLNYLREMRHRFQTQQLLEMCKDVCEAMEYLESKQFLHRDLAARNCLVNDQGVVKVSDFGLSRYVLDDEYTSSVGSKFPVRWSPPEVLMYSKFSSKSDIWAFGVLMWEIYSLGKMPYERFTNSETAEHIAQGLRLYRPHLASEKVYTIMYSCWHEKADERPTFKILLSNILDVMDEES

In general, IC50 refers to the concentration needed to halve the response being measured. Take `C[C@H]1CO[C@@H](c2nc(-c3ccc(C(=O)Nc4cc(C(F)(F)F)ccn4)cc3F)c3c(N)nccn23)CN1Cc1cnn(C)c1` [Example 74, 4-(8-amino-3-{(2R,5S)-5-methyl-4-[(1-methyl-1H-pyrazol-4-yl)methyl]morpholin-2-yl}imidazo[1,5-a]pyrazin-1-yl)-3-fluoro-N-[4-(trifluoromethyl)pyridin-2-yl]benzamide]: the IC50 in test [1] amounted to 224 nM; in test [2] it was 0.47 nM.
For `C[C@H]1CO[C@@H](c2nc(-c3ccc(C(=O)Nc4cc(C(F)(F)F)ccn4)cc3)c3c(N)ncc(Cl)n23)CN1C(=O)C1CC1` [Example 43, 4-{8-amino-5-chloro-3-[(2R,5S)-4-(cyclopropylcarbonyl)-5-methylmorpholin-2-yl]imidazo[1,5-a]pyrazin-1-yl}-N-[4-(trifluoromethyl)pyridin-2-yl]benzamide], in that order: 562 nM and 0.784 nM.
For `CCOc1cc(C(=O)Nc2cc(C(F)(F)F)ccn2)ccc1-c1nc([C@H]2CN(C(=O)[C@H](C)O)[C@@H](C)CO2)n2c(F)cnc(N)c12` [Example 106, 4-(8-amino-5-fluoro-3-{(2R,5S)-4-[(2S)-2-hydroxypropanoyl]-5-methylmorpholin-2-yl}imidazo[1,5-a]pyrazin-1-yl)-3-ethoxy-N-[4-(trifluoromethyl)pyridin-2-yl]benzamide], in that order: 6250 nM and 4.31 nM.
For `CCOc1cc(C(=O)Nc2cc(C(F)(F)F)ccn2)ccc1-c1nc([C@H]2CN(C(=O)[C@H](C)O)[C@@H](C)CO2)n2c(Cl)cnc(N)c12` [Example 22, 4-(8-amino-5-chloro-3-{(2R,5S)-4-[(2S)-2-hydroxypropanoyl]-5-methylmorpholin-2-yl}imidazo[1,5-a]pyrazin-1-yl)-3-ethoxy-N-[4-(trifluoromethyl)pyridin-2-yl]benzamide], in that order: 4530 nM and 1.21 nM.
For `COc1cc(C(=O)Nc2cc(C(F)(F)F)ccn2)ccc1-c1nc([C@H]2CN(C(=O)C3CCOCC3)[C@@H](C)CO2)n2ccnc(N)c12` [Example 49, 4-{8-amino-3-[(2R,5S)-5-methyl-4-(tetrahydro-2H-pyran-4-ylcarbonyl)morpholin-2-yl]imidazo[1,5-a]pyrazin-1-yl}-3-methoxy-N-[4-(trifluoromethyl)pyridin-2-yl]benzamide], the IC50 in test [1] was 1780 nM; in test [2], 1.74 nM.
For `CCOc1cc(C(=O)Nc2cc(C(F)(F)F)ccn2)ccc1-c1nc([C@H]2CN(C(=O)C3(C#N)CC3)[C@@H](C)CO2)n2c(Cl)cnc(N)c12` [Example 103, 4-(8-amino-5-chloro-3-{(2R,5S)-4-[(1-cyanocyclopropyl)carbonyl]-5-methylmorpholin-2-yl}imidazo[1,5-a]pyrazin-1-yl)-3-ethoxy-N-[4-(trifluoromethyl)pyridin-2-yl]benzamide], in that order: 5580 nM and 1.92 nM.
For the molecule `CCOc1cc(C(=O)Nc2cc(C(F)(F)F)n(C)n2)ccc1-c1nc([C@H]2CN(C3CCOCC3)[C@@H](C)CO2)n2ccnc(N)c12` [Example 39, 4-{8-amino-3-[(2R,5S)-5-methyl-4-(tetrahydro-2H-pyran-4-yl)morpholin-2-yl]imidazo[1,5-a]pyrazin-1-yl}-3-ethoxy-N-[1-methyl-5-(trifluoromethyl)-1H-pyrazol-3-yl]benzamide], the IC50 was 3800 nM in test [1] and 5.87 nM in test [2].
For `C[C@H]1CC[C@@H](c2nc(-c3ccc(C(=O)Nc4cc(C(F)F)ccn4)cc3)c3c(N)nccn23)CN1C(=O)N(C)C` [Example 92, (2S,5R)-5-[8-amino-1-(4-{[4-(difluoromethyl)pyridin-2-yl]carbamoyl}phenyl)imidazo[1,5-a]pyrazin-3-yl]-N,N,2-trimethylpiperidine-1-carboxamide], in that order: 22.4 nM and 0.215 nM.
Turning to `C[C@H]1CC[C@@H](c2nc(-c3ccc(C(=O)Nc4cc(C(C)(F)F)ccn4)cc3)c3c(N)nccn23)CN1C(=O)CO` [Example 95, 4-{8-amino-3-[(3R,6S)-1-(hydroxyacetyl)-6-methylpiperidin-3-yl]imidazo[1,5-a]pyrazin-1-yl}-N-[4-(1,1-difluoroethyl)pyridin-2-yl]benzamide], the values for the IC50 in test [1] and in test [2] were 175 nM and 0.168 nM, respectively.
`C[C@H]1CO[C@@H](c2nc(-c3ccc(C(=O)Nc4ccccn4)cc3)c3c(N)nccn23)CN1C(=O)C1CC1` [Example 62, 4-{8-amino-3-[(2R,5S)-4-(cyclopropylcarbonyl)-5-methylmorpholin-2-yl]imidazo[1,5-a]pyrazin-1-yl}-N-pyridin-2-ylbenzamide]: the IC50 in test [1] came to 256 nM; in test [2], 10.8 nM.
For `COc1cc(C(=O)Nc2cc(C(F)(F)F)ccn2)ccc1-c1nc([C@H]2CN(C=O)[C@@H](C)CO2)n2ccnc(N)c12` [Example 36, 4-{8-amino-3-[(2R,5S)-4-formyl-5-methylmorpholin-2-yl]imidazo[1,5-a]pyrazin-1-yl}-3-methoxy-N-[4-(trifluoromethyl)pyridin-2-yl]benzamide], in that order: 1680 nM and 9.31 nM.
The like results for `CCOc1cc(C(=O)Nc2cc(C(F)(F)F)ccn2)ccc1-c1nc([C@H]2CN(C(=O)C(C)C)[C@@H](C)CO2)n2c(Cl)cnc(N)c12` [Example 7, 4-{8-amino-5-chloro-3-[(2R,5S)-5-methyl-4-(2-methylpropanoyl)morpholin-2-yl]imidazo[1,5-a]pyrazin-1-yl}-3-ethoxy-N-[4-(trifluoromethyl)pyridin-2-yl]benzamide] were, in that order, at least 10000 nM and 1.67 nM.
In the case of `CCOc1cc(C(=O)Nc2cc(C(F)(F)F)ccn2)ccc1-c1nc([C@H]2CN(C(C)=O)[C@@H](C)CO2)n2c(Cl)cnc(N)c12` [Example 20, 4-{3-[(2R,5S)-4-acetyl-5-methylmorpholin-2-yl]-8-amino-5-chloroimidazo[1,5-a]pyrazin-1-yl}-3-ethoxy-N-[4-(trifluoromethyl)pyridin-2-yl]benzamide], the IC50 in test [1] was determined as 3910 nM; in test [2] it was 1.36 nM.
The like results for `COc1cc(C(=O)Nc2cc(C(F)(F)F)ccn2)ccc1-c1nc([C@H]2CN(Cc3cnn(C)c3)[C@@H](C)CO2)n2c(Cl)cnc(N)c12` [Example 25, 4-(8-amino-5-chloro-3-{(2R,5S)-5-methyl-4-[(1-methyl-1H-pyrazol-4-yl)methyl]morpholin-2-yl}imidazo[1,5-a]pyrazin-1-yl)-3-methoxy-N-[4-(trifluoromethyl)pyridin-2-yl]benzamide] were, in that order, 930 nM and 1.94 nM.
For `C[C@H]1CC[C@@H](c2nc(-c3ccc(C(=O)Nc4cc(C(C)(F)F)ccn4)cc3)c3c(N)nccn23)CN1C(=O)N(C)C` [Example 96, (2S,5R)-5-[8-amino-1-(4-{[4-(1,1-difluoroethyl)pyridin-2-yl]carbamoyl}phenyl)imidazo[1,5-a]pyrazin-3-yl]-N,N,2-trimethylpiperidine-1-carboxamide], in that order: 69.8 nM and 0.168 nM.
